Test results: patent US8394825B2, “Compound” (Sterix Limited, priority 2007, dated 2013)

system: DU145 cells; test: Antiproliferative assay in DU145 cells, WST-1 cell proliferation assay, 96 hours (GI50); type: cell-based; conditions: 96 hours post-treatment, 50% growth inhibition, read-out: DU-145 GI50
Experimental: Antiproliferative assays. DU145 cells were seeded into 96 well microtiter plates (5000 cells/well) and treated with […] of compounds or with vehicle control. At 96 hours post-treatment, live cell counts were determined by WST-1 cell proliferation assay (Roche, Penzberg, Germany), as per manufacturer's instructions. Viability results were expressed as a percentage of mean control values resulting in the calculation of the 50% growth inhibition (GI50). All experiments were performed in triplicate.

| GI50 [µM] | Compound |
| --- | --- |
| > 100 | COc1ccc(S(=O)(=O)N2CCc3cc(OS(N)(=O)=O)c(OC)cc3C2=O)cc1 [compound 206, 7-Methoxy-2-(4-methoxy-benzenesulfonyl)-6-O-sulfamoyl-3,4-dihydro-2H-isoquinolin-1-one] |
| > 100 | COc1cc2c(cc1OS(N)(=O)=O)CCN(S(=O)(=O)c1cccc(Cl)c1)C2=O [compound 207, 2-(3-Chloro-benzenesulfonyl)-7-methoxy-6-O-sulfamoyl-3,4-dihydro-2H-isoquinolin-1-one] |
| < 10 | COc1cccc(CN2Cc3cc(OC)c(OS(N)(=O)=O)cc3CC2C)c1 (stereo not drawn) [compound 220, 2-(3-Methoxybenzyl)-1,2,3,4-tetrahydro-7-methoxy-3-methylisoquinolin-6-O-sulfamate] |
| > 100 | COc1cc2c(cc1OS(N)(=O)=O)CCN(S(=O)(=O)c1ccccc1OC)C2=O [compound 204, 7-Methoxy-2-(2-methoxy-benzenesulfonyl)-6-O-sulfamoyl-3,4-dihydro-2H-isoquinolin-1-one] |

same assay, conditions: 96 hours post-treatment, triplicate, read-out: DU-145 GI50

| Compound | GI50 [µM] |
| --- | --- |
| COc1cc2c(cc1OS(N)(=O)=O)CCN(Cc1ccccc1)C2 [compound 74, 2-Benzyl-7-methoxy-6-O-sulfamoyl-1,2,3,4-tetrahydroisoquinoline] | 50 to 100 |
| COc1cc2c(cc1OS(N)(=O)=O)CCN(Cc1cccc(OC(C)=O)c1)C2 [compound 87, 2-(3-Acetoxybenzyl)-7-methoxy-6-O-sulfamoyl-1,2,3,4-tetrahydroisoquinoline] | 50 to 100 |
| COc1cc2c(cc1OS(N)(=O)=O)CCN(Cc1cccc(OC)c1OC)C2 [compound 91, 7-Methoxy-2-(2,3-dimethoxybenzyl)-6-O-sulfamoyl-1,2,3,4-tetrahydroisoquinoline] | < 10 |
| COc1cccc(CN2CCc3cc(OS(N)(=O)=O)c(OC)cc3C2)c1 [compound 72, 7-Methoxy-2-(3-methoxybenzyl)-6-O-sulfamoyl-1,2,3,4-tetrahydroisoquinoline] | < 10 |
| COc1cc2c(cc1OS(N)(=O)=O)CCN(Cc1cccc(OS(N)(=O)=O)c1)C2 [compound 79, 7-Methoxy-2-(3-(O-sulfamoyl)benzyl)-6-O-sulfamoyl-1,2,3,4-tetrahydroisoquinoline] | 10 to 50 |
| COc1cc2c(cc1OS(N)(=O)=O)CCN(Cc1cccc([N+](=O)[O-])c1)C2 [compound 100, 7-Methoxy-2-(3-nitrobenzyl)-6-O-sulfamoyl-1,2,3,4-tetrahydroisoquinoline] | < 10 |
| COc1cc(OC)c(OC)cc1CN1CCc2cc(OS(N)(=O)=O)c(OC)cc2C1 [compound 95, 7-Methoxy-2-(2,4,5-trimethoxybenzyl)-6-O-sulfamoyl-1,2,3,4-tetrahydroisoquinoline] | < 10 |
| COc1cc2c(cc1OS(N)(=O)=O)CCN(C(=O)c1ccccc1OC)C2=O [compound 148, 7-Methoxy-2-(2-methoxybenzoyl)-6-O-sulfamoyl-3,4-dihydro-2H-isoquinolin-1-one] | < 10 |
| COc1cc2c(cc1OS(N)(=O)=O)CCN(Cc1ccc(C#N)cc1)C2 [compound 99, 2-(4-Cyanobenzyl)-7-methoxy-6-O-sulfamoyl-1,2,3,4-tetrahydroisoquinoline] | 50 to 100 |
| COc1cc2c(cc1OS(N)(=O)=O)CCN(C(=O)c1cc(OC)c(OC)c(OC)c1)C2 [compound 127, 7-methoxy-6-O-sulfamoyl-2-(3,4,5-trimethoxybenzoyl)-1,2,3,4-tetrahydroisoquinoline] | < 10 |
| COc1ccc(CN2CCc3cc(OS(N)(=O)=O)c(OC)cc3C2)cc1OC [compound 92, 7-Methoxy-2-(3,4-dimethoxybenzyl)-6-O-sulfamoyl-1,2,3,4-tetrahydroisoquinoline] | < 10 |
| COc1cc2c(cc1OS(N)(=O)=O)CCN(Cc1ccc(OC)c(OC)c1OC)C2 [compound 93, 7-Methoxy-2-(2,3,4-trimethoxybenzyl)-6-O-sulfamoyl-1,2,3,4-tetrahydroisoquinoline] | 10 to 50 |
| COc1cc2c(cc1OS(N)(=O)=O)CCN(Cc1cccc(OC(C)C)c1)C2 [compound 104, 2-(3-Isopropoxybenzyl)-7-methoxy-6-O-sulfamoyl-1,2,3,4-tetrahydroisoquinoline] | < 10 |
| COc1cc2c(cc1OS(N)(=O)=O)CCN(Cc1cccc(C)c1)C2 [compound 77, 7-Methoxy-2-(3-methylbenzyl)-6-O-sulfamoyl-1,2,3,4-tetrahydroisoquinoline] | 10 to 50 |
| COc1cc(OC)cc(C(=O)N2CCc3cc(OS(N)(=O)=O)c(OC)cc3C2=O)c1 [compound 150, 2-(3,5-Dimethoxybenzoyl)-7-methoxy-6-O-sulfamoyl-3,4-dihydro-2H-isoquinolin-1-one] | < 10 |
| COc1cccc(C(=O)N2CCc3cc(OS(N)(=O)=O)c(OC)cc3C2=O)c1 [compound 149, 7-Methoxy-2-(3-methoxybenzoyl)-6-O-sulfamoyl-3,4-dihydro-2H-isoquinolin-1-one] | < 10 |
| COc1cc2c(cc1OS(N)(=O)=O)CCN(C(=O)c1cc(OC)c(OC)c(OC)c1)C2=O [compound 152, 7-methoxy-6-O-sulfamoyl-2-(3,4,5-trimethoxybenzoyl)-3,4-dihydro-2H-isoquinolin-1-one] | < 10 |
| COc1cc2c(cc1OS(N)(=O)=O)CCN(Cc1cccc(Oc3ccccc3)c1)C2 [compound 78, 7-Methoxy-2-(3-phenoxybenzyl)-6-O-sulfamoyl-1,2,3,4-tetrahydroisoquinoline] | 10 to 50 |
| COc1cc2c(cc1OS(N)(=O)=O)CCN(Cc1cccc(Cl)c1)C2 [compound 101, 2-(3-Chlorobenzyl)-7-methoxy-6-O-sulfamoyl-1,2,3,4-tetrahydroisoquinoline] | < 10 |
| COc1cc2c(cc1OS(N)(=O)=O)CCN(Cc1cccc(C(C)=O)c1)C2 [compound 82, 2-(3-Acetylbenzyl)-7-methoxy-6-O-sulfamoyl-1,2,3,4-tetrahydroisoquinoline] | < 10 |
| COc1cccc(C(=O)N2CCc3cc(OS(N)(=O)=O)c(OC)cc3C2)c1 [compound 123, 7-Methoxy-2-(3-methoxybenzoyl)-6-O-sulfamoyl-1,2,3,4-tetrahydroisoquinoline] | < 10 |
| COc1ccc(OC)c(CN2CCc3cc(OS(N)(=O)=O)c(OC)cc3C2)c1 [compound 94, 7-Methoxy-2-(2,5-dimethoxybenzyl)-6-O-sulfamoyl-1,2,3,4-tetrahydroisoquinoline] | < 10 |

The next lines start with the values.

| GI50 [µM] | Compound |
| --- | --- |
| 50 to 100 | COc1cc2c(cc1OS(N)(=O)=O)CCN(S(=O)(=O)c1cccc(OC(F)(F)F)c1)C2 [compound 192, 7-Methoxy-6-O-sulfamoyl-2-(3-trifluoromethoxy-benzenesulfonyl)-1,2,3,4-tetrahydroisoquinoline] |
| > 100 | COc1cc2c(cc1OS(N)(=O)=O)CCN(Cc1cc(OC)c(OC)c(OC)c1)C2=O [compound 168, 7-methoxy-6-O-sulfamoyl-2-(3,4,5-trimethoxybenzyl)-3,4-dihydroisoquinolin-1 (2H)-one] |
| 50 to 100 | COc1cccc(S(=O)(=O)N2CCc3cc(OS(N)(=O)=O)c(OC)cc3C2)c1 [compound 188, 7-Methoxy-2-(3-methoxy-benzenesulfonyl)-6-O-sulfamoyl-1,2,3,4-tetrahydroisoquinoline] |
| 10 to 50 | COc1cc2c(cc1OS(N)(=O)=O)CCN(S(=O)(=O)c1cccc(Cl)c1)C2 [compound 190, 2-(3-Chloro-benzenesulfonyl)-7-methoxy-6-O-sulfamoyl-1,2,3,4-tetrahydroisoquinoline] |
| > 100 | COc1ccc(S(=O)(=O)N2CCc3cc(OS(N)(=O)=O)c(OC)cc3C2)cc1 [compound 195, 7-Methoxy-2-(4-methoxy-benzenesulfonyl)-6-O-sulfamoyl-1,2,3,4-tetrahydroisoquinoline] |
| 10 to 50 | COc1cc2c(cc1OS(N)(=O)=O)CCN(S(=O)(=O)c1cccc(C)c1)C2 [compound 191, 7-Methoxy-6-O-sulfamoyl-2-(toluene-3-sulfonyl)-1,2,3,4-tetrahydroisoquinoline] |
| 10 to 50 | COc1cc2c(cc1OS(N)(=O)=O)CCN(S(=O)(=O)c1cccc(C(F)(F)F)c1)C2 [compound 189, 7-Methoxy-6-O-sulfamoyl-2-(3-trifluoromethyl-benzenesulfonyl)-1,2,3,4-tetrahydroisoquinoline] |
| < 10 | COc1cc2c(cc1OS(N)(=O)=O)CCN(S(=O)(=O)c1ccccc1C#N)C2 [compound 193, 2-(2-Cyano-benzenesulfonyl)-7-methoxy-6-O-sulfamoyl-1,2,3,4-tetrahydroisoquinoline] |

same assay, conditions: Homo sapiens, DU-145, 96 hours post-treatment, 50% growth inhibition

| GI50 [µM] | Compound |
| --- | --- |
| > 100 | COc1cc2c(cc1OS(N)(=O)=O)CC(C)(C)N(Cc1cc(OC)c(OC)c(OC)c1)C2 [compound 231, 2-(3,4,5-Trimethoxybenzyl)-1,2,3,4-tetrahydro-7-methoxy-3,3-dimethylisoquinolin-6-yl sulfamate] |

same assay, conditions: Homo sapiens, DU-145, 96 hours post-treatment, triplicate

| GI50 [µM] | Compound |
| --- | --- |
| 10 to 50 | COc1ccc(C(=O)N2CCc3cc(OCc4ccccc4)ccc3C2)cc1OC [compound 109, 6-Benzyloxy-2-(3,4-Dimethoxybenzoyl)-1,2,3,4-tetrahydroisoquinoline] |
| > 100 | COc1cc2c(cc1O)CCN(Cc1cccc(NC(C)=O)c1)C2 [compound 50, 6-Hydroxy-7-methoxy-2-(3-acetamidobenzyl)-1,2,3,4-tetrahydroisoquinoline] |
| < 10 | COc1cc(OC)cc(C(=O)N2CCc3cc(O)c(OC)cc3C2)c1 [compound 119, 2-(3,5-Dimethoxybenzoyl)-6-hydroxy-7-methoxy-1,2,3,4-tetrahydroisoquinoline] |

| Compound | GI50 [µM] |
| --- | --- |
| COc1cc2c(cc1O[Si](C(C)C)(C(C)C)C(C)C)CCN(S(=O)(=O)c1cccc(C#N)c1)C2 [compound 174, 2-(3-Cyano-benzenesulfonyl)-6-triisopropylsilyloxy-7-methoxy-1,2,3,4-tetrahydroisoquinoline] | > 100 |
